According to article PMC10821019, “F16 Hybrids Derived from Steviol or Isosteviol Are Accumulated in the Mitochondria of Tumor Cells and Overcome Drug Resistance” (Molecules, 2024):

Key:
[1] = test system: A2780 (ovarian carcinoma); experiment: SRB cytotoxicity assay, A2780; assay type: cell-based, human; details: for selectivity index 1 (SI 1): CCD18Co/A2780; for IC50: SRB assay, 72 h treatment, mean n = 3, SD 5-10%
Text: (§1) All compounds were screened for their cytotoxic activity and tumor cell selectivity using our standard model, previously described, comprising a selection of human tumor cell lines representing different solid tumor entities and non-malignant human fibroblasts (CCD18Co) including the cell line pair A2780/A2780cis, a well-known model of acquired drug resistance.
(§2) Reagents were bought from commercial suppliers and used without further purification. The solvents were dried according to the usual procedures. TLC was performed on silica gel (Macherey-Nagel, detection with UV absorption; Macherey-Nagel, Düren, Germany). […] Numbering in the NMR spectra: 1–20 (diterpene core), 21–24 for O-(CH2)n-N fragment followed by the pyridinium ring, the ethenyl moiety and the indole moiety. […] IR spectra were recorded on a Perkin-Elmer Spectrum Two (UATR Two Unit, Perkin-Elmer GmbH, Rodgau, Germany). […] Both media were supplemented with 10% fetal bovine serum (Biowest, Nuaillé, France) and 1% penicillin-streptomycin (Sigma-Aldrich).
(§3) Cytotoxic activities of compounds were analyzed using the SRB cytotoxicity assay. Cells were seeded in 96-well plates and after 24 h were treated with serial dilutions of compounds for 72 h. All subsequent steps were performed according to the previously described SRB assay protocol. Dose–response curves and calculation of IC50 values, including standard deviations, were carried out using GraphPad Prism8.

[2] = test system: A2780cis (resistant derivative of A2780); experiment: SRB cytotoxicity assay, A2780cis; assay type: cell-based, human; details: for IC50: SRB assay, 72 h treatment, mean n = 3, SD 5-10%; for resistance index (RI): quotient IC50 values A2780cis/A2780
Text: as §1, §2, §3

A549 (lung carcinoma) = experiment: SRB cytotoxicity assay, A549; assay type: cell-based, human; details: for selectivity index 2 (SI 2): CCD18Co/A549; for IC50: SRB assay, 72 h treatment, mean n = 3, SD 5-10%
Text: as §1, §2, §3

MCF7 (breast carcinoma) = experiment: SRB cytotoxicity assay, MCF7; assay type: cell-based, human; details: 72 h treatment, mean n = 3, SD 5-10%
Text: as §1, §2, §3

[3] = test system: HT29 (colorectal carcinoma); experiment: SRB cytotoxicity assay, HT29; assay type: cell-based, human; details: 72 h treatment, mean n = 3, SD 5-10%
Text: as §1, §2, §3

[4] = test system: CCD18Co (non-malignant human fibroblasts); experiment: SRB cytotoxicity assay, CCD18Co; assay type: cell-based; details: 72 h treatment, mean n = 3, SD 5-10%
Text: as §1, §2, §3

| Compound | selectivity index 1 (SI 1) [1] | IC50 [1] | IC50 [2] | resistance index (RI) [2] | selectivity index 2 (SI 2) (A549 (lung carcinoma)) | IC50 (A549 (lung carcinoma)) | IC50 (MCF7 (breast carcinoma)) | IC50 [3] | IC50 [4] | tumor cell selectivity, in words ([1]; tumor cells vs non-malignant fibroblasts CCD18Co) | drug resistance in the A2780/A2780cis model, in words ([2]; A2780cis vs A2780) |
| --- | --- | --- | --- | --- | --- | --- | --- | --- | --- | --- | --- |
| C=C1C[C@@]23CC[C@H]4[C@@](C)(CCC[C@@]4(C)C(=O)OCCC[n+]4cccc(/C=C/c5c[nH]c6ccccc56)c4)[C@@H]2CC[C@]1(O)C3.[Br-] [Compound 18] | 11.82 | 2.28 µM | 2.71 µM | 1.19 | 2.84 | 9.47 µM | 9.47 µM | 6.66 µM | 26.9 µM | – | – |
| CC12CCC3C(CCC4C(C)(C(=O)OCCCC[n+]5ccccc5C=Cc5c[nH]c6ccccc56)CCCC34C)(CC1=O)C2.[Br-] (stereo not drawn) [Compound 29, 4-{2-[(E)-2-(1H-Indol-3-yl)ethenyl]pyridinium-1-yl}-butyl (4α, 8β, 13β) 13-Methyl-16-oxo-17-norkauran-18-oate Bromide] | 17.61 | 1.06 µM | 3.22 µM | 3.05 | 1.88 | 9.86 µM | 2.05 µM | 3.81 µM | 18.6 µM | – | – |
| C=C1C[C@@]23CC[C@H]4[C@@](C)(CCC[C@@]4(C)C(=O)OCCCC[n+]4cccc(/C=C/c5c[nH]c6ccccc56)c4)[C@@H]2CC[C@]1(O)C3.[Br-] [Compound 26, 4-{3-[(E)-2-(1H-Indol-3-yl)-ethenyl]-pyridinium-1-yl}butyl (4α)-13-Hydroxykaur-16-en-18-oate Bromide] | 9.14 | 1.28 µM | 1.82 µM | 1.42 | 1.69 | 6.94 µM | 1.98 µM | 2.43 µM | 11.7 µM | – | – |
| CC12CCC3C(CCC4C(C)(C(=O)OCCCC[n+]5cccc(C=Cc6c[nH]c7ccccc67)c5)CCCC34C)(CC1=O)C2.[Br-] (stereo not drawn) [Compound 27, 4-{3-[(E)-2-(1H-Indol-3-yl)ethenyl]-pyridinium-1-yl}butyl (4α, 8β, 13β) 13-Methyl-16-oxo-17-norkauran-18-oate Bromide] | 14.18 | 0.76 µM | 1.27 µM | 1.67 | 1.72 | 6.28 µM | 1.57 µM | 2.2 µM | 10.8 µM | – | – |
| C=C1C[C@@]23CC[C@H]4[C@@](C)(CCC[C@@]4(C)C(=O)OCCC[n+]4ccc(/C=C/c5c[nH]c6ccccc56)cc4)[C@@H]2CC[C@]1(O)C3.[Br-] [Compound 16, 3-{4-[(E)-2-(1H-Indol-3-yl)ethenyl]-pyridinium-1-yl}-propyl (4α)-13-Hydroxykaur-16-en-18-oate Bromide] | 26.27 | 0.32 µM | 0.45 µM | 1.41 | 2.77 | 3 µM | 0.72 µM | 0.98 µM | 8.33 µM | – | – |
| C=C1C[C@@]23CC[C@H]4[C@@](C)(CCC[C@@]4(C)C(=O)OCCC[n+]4ccccc4/C=C/c4c[nH]c5ccccc45)[C@@H]2CC[C@]1(O)C3.[Br-] [Compound 20, 3-{2-[(E)-2-(1H-Indol-3-yl)-ethenyl]-pyridinium-1-yl}-propyl (4α)-13-Hydroxykaur-16-en-18-oate bromide] | 10.73 | 1.81 µM | 2.7 µM | 1.49 | 1.55 | 12.6 µM | 1.85 µM | 6.11 µM | 19.4 µM | – | – |
| C=C1C[C@@]23CC[C@H]4[C@@](C)(CCC[C@@]4(C)C(=O)OCC[n+]4cccc(/C=C/c5c[nH]c6ccccc56)c4)[C@@H]2CC[C@]1(O)C3 [Compound 10, 2-{3-[(E)-2-(1H-Indol-3-yl)ethenyl]-pyridinium-1-yl}-ethyl (4α)-13-Hydroxykaur-16-en-18-oate Bromide] | – | 2.8 µM | 4.2 µM | – | – | – | 3.83 µM | 7.65 µM | 22.7 µM | – | – |
| 4-Bromobutyl (4α) -13-Hydroxykaur-16-en-18-oate Bromide [Compound 22] | 3.58 | – | – | 1.14 | 1.68 | – | – | – | – | – | – |
| C=C1C[C@@]23CC[C@H]4[C@@](C)(CCC[C@@]4(C)C(=O)OCCBr)[C@@H]2CC[C@]1(O)C3 [Compound 6, 2-Bromoethyl (4α)-13-Hydroxykaur-16-en-18-oate] | 1.70 | 24.8 µM | 28.1 µM | 1.13 | 0.51 | 83.4 µM | 29.4 µM | 30.6 µM | 42.2 µM | – | – |
| C=C1C[C@@]23CC[C@H]4[C@@](C)(CCC[C@@]4(C)C(=O)OCCCC[n+]4ccc(/C=C/c5c[nH]c6ccccc56)cc4)[C@@H]2CC[C@]1(O)C3.[Br-] [Compound 24] | 53.96 | 0.24 µM | 0.28 µM | 1.13 | 4.74 | 2.76 µM | 0.58 µM | 0.88 µM | 13.1 µM | retained selectivity | able to reduce or even overcome drug resistance |
| CC12CCC3C(CCC4C(C)(C(=O)OCCC[n+]5cccc(C=Cc6c[nH]c7ccccc67)c5)CCCC34C)(CC1=O)C2.[Br-] (stereo not drawn) [Compound 19, 3-{3[(E)-2-(1H-Indol-3-yl)-ethenyl]-pyridinium-1-yl}-propyl (4α, 8β, 13β) 13-Methyl-16-oxo-17-norkauran-18-oate Bromide] | 15.60 | 0.99 µM | 1.93 µM | 1.94 | 1.38 | 11.2 µM | 2.5 µM | 5.05 µM | 15.5 µM | – | – |
| CC12CCC3C(CCC4C(C)(C(=O)OCC[n+]5ccccc5C=Cc5c[nH]c6ccccc56)CCCC34C)(CC1=O)C2.[Br-] (stereo not drawn) [Compound 13, 2-{2-[(E)-2-(1H-Indol-3-yl)ethenyl]-pyridinium-1-yl}-ethyl (4α, 8β, 13β) 13-Methyl-16-oxo-17-norkauran-18-oate Bromide] | 10.75 | 1.92 µM | 4.07 µM | 2.12 | 1.90 | 10.8 µM | 3.83 µM | 6.35 µM | 20.6 µM | – | – |
| C=C1C[C@@]23CC[C@H]4[C@@](C)(CCC[C@@]4(C)C(=O)OCCCBr)[C@@H]2CC[C@]1(O)C3 [Compound 14, 3-Bromopropyl (4α) -13-hydroxykaur-16-en-18-oate] | 1.51 | 27.7 µM | 28.4 µM | 1.03 | 1.44 | 29 µM | 28.1 µM | 29.1 µM | 41.7 µM | – | – |
| C[C@@]12CC[C@@H]3[C@@](CC[C@H]4[C@@]3(C)CCC[C@@]4(C)C(=O)OCCBr)(CC1=O)C2 [Compound 7, 2-Bromoethyl (4α, 8β, 13β) 13-Methyl-16-oxo-17-norkauran-18-oate] | 3.26 | 19.1 µM | 28.7 µM | 1.50 | 1.94 | 32.1 µM | 11.8 µM | 16.1 µM | 62.3 µM | – | – |
